Source: article PMC11942905, “Identification of a Selective Inhibitor of Human NFS1, a Cysteine Desulfurase Involved in Fe-S Cluster Assembly, via Structure-Based Virtual Screening” (International Journal of Molecular Sciences, 2025)
Entries after “also recorded” stand apart in the source; their conditions may differ.

Columns and labels:
human NFS1 [1] = target: T1, human NFS1 (Homo sapiens, UniProt Q9Y697); assay: NFS1 inhibition assay (H2S-producing, methylene blue); format: biochemical; details: for inhibition of NFS1: at 100 µM; for IC50: recombinant human NFS1Δ1-55, 1 mM cysteine, n = 4, read-out: IC50, NFS1 activity
T1 construct: His tag (N); made in house; host or cells: E. coli BL21(DE3)
Procedure: The 42 candidate compounds were tested for their inhibitory effects on human NFS1 using an in vitro H2S-producing assay. […] Subsequently, the effects of the selected compounds (100 µM) on human NFS1 activity were evaluated.
The activity of NFS1 was determined using a methylene blue assay as described previously, with some modifications. Briefly, reaction mixtures (200 μL) containing 50 mM of Tris-HCl (pH 8.0), 10 μM of PLP, 1 mM of DTT, and 10 μg of NFS1 were preincubated at 37 °C for 3 min. The reaction was then initiated by adding 1 mM of cysteine. After 15 min of incubation at 37 °C, the reaction was quenched by adding 25 μL of 20 mM N,N-dimethyl-p-phenylenediamine in 7.2 M of HCl and 25 μL of 30 mM FeCl3 in 1.2 M of HCl. Subsequently, the reaction mixtures were incubated for another 15 min at 37 °C, followed by centrifugation at 12,000 rpm for 10 minutes to remove the precipitates. The absorbance of the supernatant was measured at 670 nm. A reaction mixture without the substrate cysteine was used as the negative control. The H2S concentration was calculated based on a standard curve prepared using various concentrations of sodium sulfide (Na2S).
For the NFS1 inhibition assays, all test compounds were dissolved in dimethyl sulfoxide (DMSO) to prepare 10 mM stock solutions, which were stored at −80 °C. The stock solutions were diluted to the appropriate concentrations with 50 mM of Tris-HCl (pH 8.0) as required for the experiments. A reaction mixture containing DMSO but no test compounds was used as a negative control. The dose-dependent effects of the inhibitors on NFS1 activity were determined using the methylene blue assay described above. The IC50 values of the inhibitors were calculated by adding different concentrations of the inhibitors to the enzyme reaction mixtures.

human NFS1 [2] = target: T1, human NFS1; set-up: method as in PMID 36103522; details: cited from earlier work
A549 cells [3] = assay: Endogenous ROS levels, DCFH-DA fluorescence; format: cell-based, human; details: 48 h, Compound 53 50 µM, Erastin 2.5 µM, 2-AAPA 20 µM
Procedure: Endogenous ROS levels in A549 cells were detected using the fluorescent dye DCFH-DA [48, 49]. A549 cells were cultured in DMEM supplemented with 10% fetal bovine serum at 37 °C in a humidified atmosphere containing 5% CO2. […] Subsequently, the cells were washed three times with prewarmed PBS, and fresh medium containing 10 μM of DCFH-DA was added. After 30 min of incubation, the cells were washed again with prewarmed PBS, fresh medium was added, and the cells were imaged using an inverted fluorescence microscope (Leica, Wetzlar, Germany). Images of live cells were acquired in six different fields. ImageJ software was used to analyze the images.

A549 cells [4] = assay: Lipid peroxide (LPO) content; format: cell-based, human; details: 48 h, Erastin 2.5 µM, Compound 53 50 µM, 2-AAPA 20 µM, alone or combined
Procedure: A549 cells were seeded in 10 cm dishes at a density of 2 × 10^6 cells per dish and cultured until they reached 40–60% confluence. […] Lipid peroxidation (LPO) levels were measured using a Lipid Peroxide (LPO) Content Assay Kit (Solarbio, China) following the manufacturer’s instructions.

A549 cells [5] = assay: CCK-8 cell viability assay, A549; format: cell-based, human; details: for IC50: Homo sapiens, A549, CCK-8, 72 h
Procedure: (§1) Human bronchial epithelial cells (BEAS-2B) and human lung adenocarcinoma A549 cells were purchased from the Institute of Biochemistry and Cell Biology, Chinese Academy of Sciences (Shanghai, China). BEAS-2B and A549 cells were cultured in DMEM supplemented with 10% (v/v) fetal bovine serum and 1% (v/v) penicillin–streptomycin solution at 37 °C in a humidified atmosphere containing 5% CO2. The half-maximal inhibitory concentration (IC50) values of the selected compounds against BEAS-2B and A549 cells were determined using the CCK-8 assay. Briefly, the cells were seeded into 96-well culture plates at a density of 5 × 10^3 cells per well. After 12 h of culture, fresh medium containing varying concentrations of the selected compounds dissolved in DMSO was added for an additional 72-hour incubation. Subsequently, 10 μL of CCK-8 solution was added to each well, followed by a further 1.5-h incubation at 37 °C. The optical density at 450 nm (OD450) for each well was measured using a microplate reader. Medium containing DMSO alone was used as the control group. Cell viability was calculated as the percentage of the OD450 of the experimental group compared to that of the control group, which was set at 100%.

BEAS-2B cells = assay: CCK-8 cell viability assay, BEAS-2B; format: cell-based; details: Homo sapiens, CCK-8, 72 h
Procedure: as §1

[6] = target: T2, cystathionine-γ-lyase (CSE) (Homo sapiens, UniProt P32929); assay: Selectivity assay, H2S-producing activity of CSE; format: biochemical; details: at 100 µM
T2 construct: made in house; host or cells: E. coli
Procedure: (§2) To evaluate the selectivity of Compounds 53 and 56, their effects on the activities of two other PLP-dependent enzymes, human cystathionine-β-synthase (CBS) and cystathionine-γ-lyase (CSE), were determined using a H2S-producing assay. Human CBS and CSE were expressed and purified in E. coli with a purity exceeding 90%, as confirmed by SDS-PAGE (Figures S4A and S5A). Subsequently, the H2S-producing activities of CBS and CSE were assessed in the presence of different concentrations of Compounds 53 and 56. A widely used CBS inhibitor, AOAA, and a specific CSE inhibitor, PAG, were used as positive controls (Figures S4B and S5B).
(§3) The H2S-producing activity of CBS was measured as previously described. The reaction mixture (200 μL) contained 50 mM of Hepes buffer (pH 7.4), 2 mM of homocysteine, 10 μM of PLP, 0.4 mM of lead nitrate, and 5 μg of CBS protein. It was preincubated at 37 °C for 3 min, and the reaction was initiated by the addition of 2 mM of cysteine. The reaction was monitored in a multifunctional microplate reader at 37 °C for 10 min. An extinction coefficient of 5500 M^−1 cm^−1 at 390 nm was used to calculate the lead sulfide concentration. The method used to determine CSE activity in the H2S-producing assay was identical to the CBS assay, except that 1 mM of cysteine was used as the sole substrate. […]

[7] = target: T3, human cystathionine-β-synthase (CBS) (Homo sapiens, UniProt P35520); assay: Selectivity assay, H2S-producing activity of CBS; format: biochemical; details: at 100 µM
T3 construct: made in house; host or cells: E. coli
T3 sequence (P35520 1-551): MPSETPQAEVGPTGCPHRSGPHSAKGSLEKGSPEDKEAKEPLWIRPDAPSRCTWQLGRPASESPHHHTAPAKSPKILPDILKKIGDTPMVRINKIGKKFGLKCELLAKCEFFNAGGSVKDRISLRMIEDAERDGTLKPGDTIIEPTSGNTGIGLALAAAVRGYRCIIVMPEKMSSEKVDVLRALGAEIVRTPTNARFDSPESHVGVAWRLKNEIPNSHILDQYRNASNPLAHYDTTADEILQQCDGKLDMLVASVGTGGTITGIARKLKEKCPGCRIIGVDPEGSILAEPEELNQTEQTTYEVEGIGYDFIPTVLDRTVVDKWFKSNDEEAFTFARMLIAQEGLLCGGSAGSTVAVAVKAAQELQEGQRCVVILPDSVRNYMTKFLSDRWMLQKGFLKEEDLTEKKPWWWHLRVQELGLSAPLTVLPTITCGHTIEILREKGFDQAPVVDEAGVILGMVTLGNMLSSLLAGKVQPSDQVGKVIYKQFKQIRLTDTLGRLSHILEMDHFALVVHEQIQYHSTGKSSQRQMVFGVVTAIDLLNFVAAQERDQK
Procedure: as §2, §3

[8] = test system: cysteine desulfurase activity of Plasmodium falciparum; set-up: method as in PMID 24709262; details: cited from earlier work

T1 sequence (Q9Y697 56-457): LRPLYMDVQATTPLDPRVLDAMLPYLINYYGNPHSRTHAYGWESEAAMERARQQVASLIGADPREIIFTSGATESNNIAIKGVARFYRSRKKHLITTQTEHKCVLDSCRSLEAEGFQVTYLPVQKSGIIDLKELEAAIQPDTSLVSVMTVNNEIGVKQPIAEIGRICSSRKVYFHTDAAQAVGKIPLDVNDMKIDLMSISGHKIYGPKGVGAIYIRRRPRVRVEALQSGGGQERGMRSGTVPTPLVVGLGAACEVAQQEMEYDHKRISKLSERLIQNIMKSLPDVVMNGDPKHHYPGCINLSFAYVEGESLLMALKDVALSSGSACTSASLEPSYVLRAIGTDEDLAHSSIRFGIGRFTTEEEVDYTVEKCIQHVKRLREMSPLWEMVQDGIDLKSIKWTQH
T2 sequence (P32929 whole entry): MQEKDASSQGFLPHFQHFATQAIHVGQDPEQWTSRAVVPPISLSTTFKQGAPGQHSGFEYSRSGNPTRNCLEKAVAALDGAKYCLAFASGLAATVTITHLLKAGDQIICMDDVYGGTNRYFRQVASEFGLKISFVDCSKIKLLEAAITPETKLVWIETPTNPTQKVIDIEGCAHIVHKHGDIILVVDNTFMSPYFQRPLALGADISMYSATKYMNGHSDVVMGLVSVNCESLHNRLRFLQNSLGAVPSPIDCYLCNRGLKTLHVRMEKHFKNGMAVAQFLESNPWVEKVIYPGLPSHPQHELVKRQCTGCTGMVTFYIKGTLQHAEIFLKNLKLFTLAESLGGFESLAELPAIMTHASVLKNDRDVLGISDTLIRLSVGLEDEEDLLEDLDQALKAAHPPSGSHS

COc1cc(/C=N\NC(=O)Cc2nnc(NC(=O)c3ccc([N+](=O)[O-])cc3)s2)ccc1O [Compound 1]
inhibition of NFS1 (human NFS1 [1]): approximately 50% | IC50 (human NFS1 [1]): 153 ± 3.42 µM

COCC1(CO)C(=O)C2CCN1CC2 (stereo not shown) [APR-246, eprenetapopt]
concentrations required to inhibit NFS1 (human NFS1 [2]): millimolar concentrations

O=c1cc(-c2ccc(O)c(O)c2)oc2cc(O[C@H]3O[C@H](CO)[C@@H](O)[C@@H](O)[C@@H]3O)cc(O)c12 [Compound 37]
inhibition of NFS1 (human NFS1 [1]): approximately 50% | IC50 (human NFS1 [1]): 141 ± 3.49 µM

CC(=O)NC(CSC(=O)Nc1ccc(NC(=O)SCC(NC(C)=O)C(=O)O)cc1)C(=O)O (stereo not shown) [Compound 2-AAPA, 2-Acetylamino-3-[4-(2-acetylamino-2-carboxyethylsulfanylcarbonylamino)phenylcarbamoylsulfanyl] propionic acid]
intracellular ROS levels (A549 cells [3]): significantly elevated cellular ROS levels | intracellular lipid peroxide (LPO) levels (A549 cells [4]): no significant changes | IC50 (A549 cells [5]): ~20 µM

COc1cc(/C=N/NC(=O)CSc2nnc(SCc3ccccc3)s2)cc(OC)c1O [Compound 56]
IC50 (BEAS-2B cells): 78.4 ± 2 µM | inhibitory effect on CSE [6]: no significant inhibitory effects | IC50 (A549 cells [5]): 27.7 ± 1.99 µM | inhibitory effect on CBS [7]: no significant inhibitory effects

CCOc1ccccc1-n1c(C(C)N2CCN(C(=O)COc3ccc(Cl)cc3)CC2)nc2ccccc2c1=O (stereo not shown) [Erastin]
intracellular ROS levels (A549 cells [3]): significantly increased intracellular ROS levels; also recorded: significantly elevated cellular ROS levels | intracellular lipid peroxide (LPO) levels (A549 cells [4]): elevated LPO levels | effect on cell viability (A549 cells [5]; A549 cells, 2.5 µM): did not significantly affect cell viability

N[C@@H]1CON=C1O [D-cycloserine]
IC50 [8]: ~29 µM
